The record followed here is patent EP0129932A1, “N,N,N',N'-tetra (hydroxyethyl)-5-acetylamino-2,4,6-triiodoisophtaloyldiglycinamide, a process for the preparation of said compound and an X-ray contrast agent containing said compound” (DAGRA N.V., priority 1983, dated 1985).

The nature of data set [1]: physchem. The settings on record: water.
In data set [2] the test system is mice. Briefly: intravenous toxicity in mice. Format: in vivo. The settings on record: solution of 300 mg I/ml, injection rate 20 g 1/kg/min. As to the method: The intravenous toxicity was determined in mice, after administration of a solution of 300 mg I/ml at an injection rate of 20 g 1/kg/min.

Molecules are shown by their SMILES. In brackets after ≈: the same amount, converted by molar mass.

Take `CC(=O)Nc1c(I)c(C(=O)NCC(=O)N(CCO)CCO)c(I)c(C(=O)NCC(=O)N(CCO)CCO)c1I` [The compound]: in data set [1], the solubility was ~3000 mg/mL (≈ 3370 mM). This compound also displayed an LD50 in data set [2] of 15.4 g I/kg.
